Experimental data reported in patent publication US7074789B2, “Kinase inhibitors” (Amgen Inc., priority 1999, dated 2006).
pIC50: −log10 of the molar value.

Experiments:
Type in all cases: biochemical
Lck = target: T1, Lck (Homo sapiens, UniProt P06239); assay: Kinase inhibition assay (33P transfer), Lck; details: read-out: Lck-1
T1 construct: Kinases are expressed as either kinase domains or full length constructs; made in house
Summary of the method: (§1)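 Liquid scintillation counting of 33P on plate-bound synthetic substrates gives kinase activity. Plates are washed in 0.5% phosphoric acid first; kinases are tagged recombinant proteins from E. coli or baculovirus-infected High Five cells.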

Zap-70 = target: T2, Zap-70 (Homo sapiens, UniProt P43403); assay: Kinase inhibition assay (33P transfer), Zap-70; details: read-out: Zap-1
T2 construct: Kinases are expressed as either kinase domains or full length constructs; made in house
T2 sequence (P43403 1-619): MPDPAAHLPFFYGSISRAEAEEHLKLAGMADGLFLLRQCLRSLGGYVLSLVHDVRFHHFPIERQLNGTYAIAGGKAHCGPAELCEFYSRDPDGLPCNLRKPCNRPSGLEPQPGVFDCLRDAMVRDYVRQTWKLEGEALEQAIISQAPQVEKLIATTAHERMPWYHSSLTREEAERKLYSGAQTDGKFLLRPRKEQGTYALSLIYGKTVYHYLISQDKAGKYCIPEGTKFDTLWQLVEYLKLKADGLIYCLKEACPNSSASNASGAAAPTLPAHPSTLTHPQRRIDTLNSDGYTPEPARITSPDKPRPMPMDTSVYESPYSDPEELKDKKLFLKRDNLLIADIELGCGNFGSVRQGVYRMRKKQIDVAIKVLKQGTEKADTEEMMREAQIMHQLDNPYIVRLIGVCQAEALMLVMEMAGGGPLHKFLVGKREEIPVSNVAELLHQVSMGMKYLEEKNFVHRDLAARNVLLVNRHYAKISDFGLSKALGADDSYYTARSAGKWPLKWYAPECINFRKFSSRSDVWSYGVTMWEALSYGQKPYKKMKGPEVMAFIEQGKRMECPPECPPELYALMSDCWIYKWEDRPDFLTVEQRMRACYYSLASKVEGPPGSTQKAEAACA
Summary of the method: as §1

Itk = target: T3, Itk (Homo sapiens, UniProt Q08881); assay: Kinase inhibition assay (33P transfer), Itk; details: read-out: Itk-1
T3 construct: Kinases are expressed as either kinase domains or full length constructs; made in house
T3 sequence (Q08881 1-620): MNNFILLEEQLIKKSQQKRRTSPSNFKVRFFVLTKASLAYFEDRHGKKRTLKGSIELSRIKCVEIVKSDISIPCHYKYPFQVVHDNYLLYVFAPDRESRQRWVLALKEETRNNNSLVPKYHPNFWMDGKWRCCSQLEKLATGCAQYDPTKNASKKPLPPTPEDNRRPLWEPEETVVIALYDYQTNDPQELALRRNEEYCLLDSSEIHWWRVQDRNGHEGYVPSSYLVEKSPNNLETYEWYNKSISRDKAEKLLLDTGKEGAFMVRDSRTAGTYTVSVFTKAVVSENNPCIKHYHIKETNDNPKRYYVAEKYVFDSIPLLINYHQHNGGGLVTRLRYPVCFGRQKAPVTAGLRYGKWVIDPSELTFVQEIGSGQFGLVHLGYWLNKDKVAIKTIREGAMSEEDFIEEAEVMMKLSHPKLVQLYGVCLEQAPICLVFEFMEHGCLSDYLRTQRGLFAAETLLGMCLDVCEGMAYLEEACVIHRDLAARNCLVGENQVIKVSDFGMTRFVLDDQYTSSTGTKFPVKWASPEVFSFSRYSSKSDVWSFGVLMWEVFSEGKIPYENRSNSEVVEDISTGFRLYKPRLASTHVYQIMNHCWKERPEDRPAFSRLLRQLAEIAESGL
Summary of the method: (§2)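 Read-out: scintillation counts of 33P moved from ATP onto synthetic peptide polymer coated on the well surface, after washing with 0.5% phosphoric acid. Enzymes were tagged (GST or polyHistidine) and came from bacterial or insect-cell expression. IC50 marks 50% loss of incorporated label.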

EGFR = target: T4, EGFR (Homo sapiens, UniProt P00533); assay: Kinase inhibition assay (33P transfer), EGFR; details: Table 2, kinase inhibition class; read-out: EGFR-1
T4 construct: Kinases are expressed as either kinase domains or full length constructs; made in house
Summary of the method: as §2

ErbB2 = target: T5, ErbB2 (Homo sapiens, UniProt P04626); assay: Kinase inhibition assay (33P transfer), ErbB2; details: read-out: ErbB2-2
T5 construct: Kinases are expressed as either kinase domains or full length constructs; made in house
T5 sequence (P04626 23-1255, species assumed): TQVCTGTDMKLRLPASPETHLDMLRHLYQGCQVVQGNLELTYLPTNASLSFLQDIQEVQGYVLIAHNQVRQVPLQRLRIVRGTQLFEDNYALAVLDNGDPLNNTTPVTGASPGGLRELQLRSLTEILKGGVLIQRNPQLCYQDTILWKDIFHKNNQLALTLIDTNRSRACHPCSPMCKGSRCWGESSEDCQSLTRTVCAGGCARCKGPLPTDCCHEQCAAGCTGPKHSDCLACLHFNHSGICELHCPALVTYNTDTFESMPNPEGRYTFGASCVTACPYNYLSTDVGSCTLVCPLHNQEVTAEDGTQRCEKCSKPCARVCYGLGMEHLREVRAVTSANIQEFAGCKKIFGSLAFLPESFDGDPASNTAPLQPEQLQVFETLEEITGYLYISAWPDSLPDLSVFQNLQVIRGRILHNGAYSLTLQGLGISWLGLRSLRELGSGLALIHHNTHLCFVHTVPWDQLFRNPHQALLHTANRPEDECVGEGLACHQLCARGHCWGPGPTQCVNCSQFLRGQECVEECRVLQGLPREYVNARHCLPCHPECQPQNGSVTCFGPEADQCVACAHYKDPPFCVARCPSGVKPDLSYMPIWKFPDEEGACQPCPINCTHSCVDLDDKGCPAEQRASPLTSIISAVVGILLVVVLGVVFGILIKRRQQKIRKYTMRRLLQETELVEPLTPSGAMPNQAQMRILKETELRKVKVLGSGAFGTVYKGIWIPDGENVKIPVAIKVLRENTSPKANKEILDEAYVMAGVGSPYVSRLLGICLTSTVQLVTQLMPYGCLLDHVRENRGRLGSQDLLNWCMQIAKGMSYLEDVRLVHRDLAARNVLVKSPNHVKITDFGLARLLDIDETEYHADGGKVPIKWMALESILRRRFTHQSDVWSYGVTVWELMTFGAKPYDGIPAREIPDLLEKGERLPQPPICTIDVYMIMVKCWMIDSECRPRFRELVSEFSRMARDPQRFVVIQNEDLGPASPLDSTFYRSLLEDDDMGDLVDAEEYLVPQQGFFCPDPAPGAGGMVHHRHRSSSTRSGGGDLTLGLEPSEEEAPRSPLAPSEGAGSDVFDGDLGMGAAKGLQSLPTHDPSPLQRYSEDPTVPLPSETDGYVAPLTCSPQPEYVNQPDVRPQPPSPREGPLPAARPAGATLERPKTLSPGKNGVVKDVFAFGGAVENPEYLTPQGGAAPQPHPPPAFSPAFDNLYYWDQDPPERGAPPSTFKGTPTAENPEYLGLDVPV
Summary of the method: as §2

Kdr = target: T6, Kdr (Homo sapiens, UniProt P35968); assay: Kinase inhibition assay (33P transfer), Kdr; details: read-out: KDR-1
T6 construct: Kinases are expressed as either kinase domains or full length constructs; made in house
T6 sequence (P35968 20-1356, species assumed): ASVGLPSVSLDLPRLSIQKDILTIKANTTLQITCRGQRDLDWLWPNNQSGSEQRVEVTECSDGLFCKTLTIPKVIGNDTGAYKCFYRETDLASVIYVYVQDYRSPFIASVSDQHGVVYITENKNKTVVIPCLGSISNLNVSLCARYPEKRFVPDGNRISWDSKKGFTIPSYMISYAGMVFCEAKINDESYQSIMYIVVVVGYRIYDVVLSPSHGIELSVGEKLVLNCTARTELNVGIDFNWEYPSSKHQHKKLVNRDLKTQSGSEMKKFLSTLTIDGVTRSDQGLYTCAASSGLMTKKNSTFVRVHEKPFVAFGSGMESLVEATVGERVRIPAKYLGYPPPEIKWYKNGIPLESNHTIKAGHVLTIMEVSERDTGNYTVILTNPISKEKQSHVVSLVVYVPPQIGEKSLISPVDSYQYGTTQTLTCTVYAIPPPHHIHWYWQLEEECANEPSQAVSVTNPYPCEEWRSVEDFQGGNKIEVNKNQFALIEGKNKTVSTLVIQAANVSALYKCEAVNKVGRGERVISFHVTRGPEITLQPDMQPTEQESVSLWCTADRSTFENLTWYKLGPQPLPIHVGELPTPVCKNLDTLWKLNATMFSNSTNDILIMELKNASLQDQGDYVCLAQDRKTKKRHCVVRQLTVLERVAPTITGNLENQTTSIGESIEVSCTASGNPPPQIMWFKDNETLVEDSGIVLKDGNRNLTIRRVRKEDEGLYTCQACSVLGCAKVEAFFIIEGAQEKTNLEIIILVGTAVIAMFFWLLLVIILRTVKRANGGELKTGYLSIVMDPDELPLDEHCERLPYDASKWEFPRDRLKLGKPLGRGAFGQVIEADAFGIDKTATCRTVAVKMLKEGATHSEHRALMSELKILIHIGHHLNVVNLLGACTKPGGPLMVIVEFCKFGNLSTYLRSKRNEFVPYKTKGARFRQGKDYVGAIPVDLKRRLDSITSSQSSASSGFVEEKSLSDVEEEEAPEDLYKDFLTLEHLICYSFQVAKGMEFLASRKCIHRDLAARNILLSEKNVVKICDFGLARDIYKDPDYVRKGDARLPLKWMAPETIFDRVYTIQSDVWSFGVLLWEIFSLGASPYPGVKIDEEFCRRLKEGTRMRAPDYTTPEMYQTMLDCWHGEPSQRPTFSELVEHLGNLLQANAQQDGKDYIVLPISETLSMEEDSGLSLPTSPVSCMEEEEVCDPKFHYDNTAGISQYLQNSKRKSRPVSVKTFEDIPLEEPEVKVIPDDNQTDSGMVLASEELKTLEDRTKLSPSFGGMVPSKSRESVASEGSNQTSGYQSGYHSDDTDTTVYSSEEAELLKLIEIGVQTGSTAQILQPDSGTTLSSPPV
Summary of the method: as §1

c-Met = target: T7, c-Met (Homo sapiens, UniProt P08581); assay: Kinase inhibition assay (33P transfer), c-Met; details: Table 2, kinase inhibition class; read-out: Met-1
T7 construct: Kinases are expressed as either kinase domains or full length constructs; made in house
Summary of the method: as §2

AKT = target: T8, AKT (Homo sapiens, UniProt Q9Y243); assay: Kinase inhibition assay (33P transfer), AKT; details: Table 2, kinase inhibition class; read-out: AKT3-1
T8 construct: Kinases are expressed as either kinase domains or full length constructs; made in house
T8 sequence (Q9Y243 whole entry, the tested form may be a part): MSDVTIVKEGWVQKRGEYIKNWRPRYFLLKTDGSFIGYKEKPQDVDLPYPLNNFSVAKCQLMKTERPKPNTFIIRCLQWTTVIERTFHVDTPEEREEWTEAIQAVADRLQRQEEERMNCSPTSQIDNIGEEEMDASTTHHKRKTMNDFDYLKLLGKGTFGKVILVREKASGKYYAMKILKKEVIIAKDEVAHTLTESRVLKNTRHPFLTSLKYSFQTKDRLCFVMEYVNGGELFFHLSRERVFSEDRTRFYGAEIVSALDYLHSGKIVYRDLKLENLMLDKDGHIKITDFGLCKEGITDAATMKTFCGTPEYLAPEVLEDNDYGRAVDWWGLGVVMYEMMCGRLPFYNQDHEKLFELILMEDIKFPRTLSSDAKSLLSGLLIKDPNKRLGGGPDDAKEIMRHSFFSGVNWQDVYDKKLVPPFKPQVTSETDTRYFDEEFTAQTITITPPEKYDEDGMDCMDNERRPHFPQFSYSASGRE
Summary of the method: as §1

IGFR-1 = target: T9, IGFR-1 (Homo sapiens, UniProt P08069); assay: Kinase inhibition assay, IGFR-1 (Table 2); details: Table 2, kinase inhibition class
T9 construct: Kinases are expressed as either kinase domains or full length constructs; made in house

PDGFRB = target: T10, PDGFRB (Homo sapiens, UniProt P09619); assay: Kinase inhibition assay (33P transfer), PDGFRB; details: read-out: PDGFRB-1
T10 construct: Kinases are expressed as either kinase domains or full length constructs; made in house
T10 sequence (P09619 33-1106, species assumed): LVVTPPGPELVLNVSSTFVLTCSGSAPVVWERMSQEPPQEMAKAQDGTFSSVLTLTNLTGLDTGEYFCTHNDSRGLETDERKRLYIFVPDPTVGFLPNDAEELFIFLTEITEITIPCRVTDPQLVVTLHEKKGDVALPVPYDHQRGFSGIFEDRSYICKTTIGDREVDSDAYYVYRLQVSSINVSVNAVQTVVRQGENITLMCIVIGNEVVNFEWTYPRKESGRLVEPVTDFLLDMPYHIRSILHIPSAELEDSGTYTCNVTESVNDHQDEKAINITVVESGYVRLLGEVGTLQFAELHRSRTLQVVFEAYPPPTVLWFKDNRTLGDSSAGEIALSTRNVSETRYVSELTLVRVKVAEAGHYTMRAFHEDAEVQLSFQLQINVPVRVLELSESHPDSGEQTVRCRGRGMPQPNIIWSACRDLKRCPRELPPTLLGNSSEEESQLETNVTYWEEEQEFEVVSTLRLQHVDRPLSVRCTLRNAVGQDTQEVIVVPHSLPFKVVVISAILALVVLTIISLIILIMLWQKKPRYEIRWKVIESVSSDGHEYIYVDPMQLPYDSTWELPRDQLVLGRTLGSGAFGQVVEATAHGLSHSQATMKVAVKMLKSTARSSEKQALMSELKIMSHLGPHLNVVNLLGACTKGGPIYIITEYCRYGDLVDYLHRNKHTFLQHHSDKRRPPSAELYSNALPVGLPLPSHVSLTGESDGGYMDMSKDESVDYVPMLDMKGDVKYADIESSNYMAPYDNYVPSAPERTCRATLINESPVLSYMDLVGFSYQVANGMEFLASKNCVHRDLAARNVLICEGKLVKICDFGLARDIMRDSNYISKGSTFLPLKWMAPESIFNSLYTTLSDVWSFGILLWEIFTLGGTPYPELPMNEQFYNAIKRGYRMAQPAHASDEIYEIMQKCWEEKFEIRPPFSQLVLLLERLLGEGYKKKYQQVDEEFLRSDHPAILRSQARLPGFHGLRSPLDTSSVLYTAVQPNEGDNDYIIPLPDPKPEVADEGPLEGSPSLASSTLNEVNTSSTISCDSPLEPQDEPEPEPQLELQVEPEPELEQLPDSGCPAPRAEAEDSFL

T1 sequence (P06239 whole entry, species assumed, the tested form may be a part): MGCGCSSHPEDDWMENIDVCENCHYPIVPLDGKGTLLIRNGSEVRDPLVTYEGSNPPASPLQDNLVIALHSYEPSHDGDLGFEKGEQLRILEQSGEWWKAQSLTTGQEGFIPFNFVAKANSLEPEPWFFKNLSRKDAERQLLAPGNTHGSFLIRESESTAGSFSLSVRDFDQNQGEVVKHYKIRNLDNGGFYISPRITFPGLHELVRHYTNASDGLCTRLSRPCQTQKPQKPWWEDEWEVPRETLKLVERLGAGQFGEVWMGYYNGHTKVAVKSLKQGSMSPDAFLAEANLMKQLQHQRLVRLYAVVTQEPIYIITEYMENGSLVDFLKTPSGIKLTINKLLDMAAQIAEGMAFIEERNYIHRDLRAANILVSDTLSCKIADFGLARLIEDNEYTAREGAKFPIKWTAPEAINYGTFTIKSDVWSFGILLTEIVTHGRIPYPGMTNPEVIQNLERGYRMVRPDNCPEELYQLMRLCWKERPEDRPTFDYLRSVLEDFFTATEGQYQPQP

| SMILES | pIC50 (Lck) | pIC50 (Zap-70) | pIC50 (Itk) | pIC50 (EGFR) | pIC50 (ErbB2) | pIC50 (Kdr) | pIC50 (c-Met) | pIC50 (AKT) | pIC50 (IGFR-1) | pIC50 (PDGFRB) |
| --- | --- | --- | --- | --- | --- | --- | --- | --- | --- | --- |
| CN(c1ccccc1)c1ncnc(-n2c(N)nc3ccccc32)n1 [Compound 662] | 4.96 to 5.12 | < 4.85 | < 4.85 | 4.96 to 5.12 | 4.96 to 5.12 | 5.12 to 5.90 | < 4.85 | < 4.85 | 4.85 to 4.96 | < 4.85 |
| Cc1ccc(Nc2ncnc(Nc3cccc(CC(=O)O)c3)n2)cc1O [Compound 543] | 5.00 to 5.17 | < 4.89 | < 4.89 | > 5.94 | 5.17 to 5.94 | > 5.94 | < 4.89 | < 4.89 | < 4.89 | 5.17 to 5.94 |
| Cc1ccc2c(c1)CCCN2c1ncnc(Nc2cccc(Cl)c2C)n1 [Compound 778] | < 4.91 | < 4.91 | < 4.91 | 5.02 to 5.18 | 5.02 to 5.18 | 5.02 to 5.18 | 5.18 to 5.96 | 5.18 to 5.96 | < 4.91 | < 4.91 |
| CN(c1cccc(Cl)c1)c1ncnc(N(C)c2cccc(Cl)c2)n1 [Compound 702] | < 4.90 | < 4.90 | < 4.90 | 5.18 to 5.95 | < 4.90 | < 4.90 | < 4.90 | < 4.90 | < 4.90 | < 4.90 |
| CC(=O)N1CCc2cc(Nc3ncnc(N4CCCc5cc(C)ccc54)n3)ccc21 [Compound 764] | < 4.95 | < 4.95 | < 4.95 | > 6.00 | < 4.95 | < 4.95 | > 6.00 | < 4.95 | < 4.95 | > 6.00 |
| CN(c1cccc(Cl)c1)c1ncnc(NCCOCCO)n1 [Compound 746] | < 4.86 | < 4.86 | < 4.86 | < 4.86 | < 4.86 | < 4.86 | < 4.86 | < 4.86 | < 4.86 | < 4.86 |
| COc1cccc(Nc2ncnc(Nc3cc(-c4ccccc4)n[nH]3)n2)c1 [Compound 1011] | 5.18 to 5.95 | < 4.90 | 5.18 to 5.95 | 5.18 to 5.95 | 5.18 to 5.95 | 5.18 to 5.95 | 5.18 to 5.95 | 5.18 to 5.95 | > 5.95 | 5.18 to 5.95 |
| COc1cc(Nc2ncnc(-c3cccnc3Cl)n2)cc(OC)c1OCCN1CCOCC1 [Compound 565] | 5.29 to 6.07 | < 5.02 | < 5.02 | < 5.02 | < 5.02 | 5.13 to 5.29 | < 5.02 | < 5.02 | < 5.02 | 5.29 to 6.07 |
| COc1cc(Nc2ncnc(Nc3ccc4c(cnn4C)c3)n2)cc(OC)c1OC [Compound 557] | > 6.01 | < 4.96 | 4.96 to 5.07 | 5.23 to 6.01 | > 6.01 | 5.23 to 6.01 | < 4.96 | < 4.96 | > 6.01 | > 6.01 |
| COc1ccc(Nc2ncnc(NCCCN3CCCCC3C)n2)cc1OC (centres unmarked) [Compound 782] | < 4.93 | < 4.93 | < 4.93 | < 4.93 | < 4.93 | < 4.93 | < 4.93 | < 4.93 | < 4.93 | 5.04 to 5.21 |
| COc1ccc(Nc2ncnc(N(C)c3cccc(Cl)c3)n2)cc1 [Compound 743] | < 4.88 | < 4.88 | < 4.88 | > 5.93 | < 4.88 | < 4.88 | < 4.88 | < 4.88 | < 4.88 | < 4.88 |
| COc1cc(Nc2ncnc(-n3c(NC4CCCc5ccccc54)nc4ccccc43)n2)cc(OC)c1OC (centres unmarked) [Compound 1043] | 5.17 to 5.34 | < 5.07 | < 5.07 | 5.07 to 5.17 | 5.34 to 6.12 | 5.34 to 6.12 | < 5.07 | < 5.07 | 5.07 to 5.17 | 5.17 to 5.34 |
| CN(c1cccc(Cl)c1)c1ncnc(Nc2ccc3cn[nH]c3c2)n1 [Compound 718] | < 4.89 | 4.89 to 5.00 | < 4.89 | > 5.94 | < 4.89 | < 4.89 | < 4.89 | 4.89 to 5.00 | < 4.89 | 5.00 to 5.17 |
| COC(=O)Cc1cccc(Nc2ncnc(-n3c(NCc4ccc(OC)cc4)nc4ccccc43)n2)c1 [Compound 548] | < 5.04 | < 5.04 | < 5.04 | < 5.04 | < 5.04 | > 6.09 | < 5.04 | < 5.04 | < 5.04 | < 5.04 |
| COc1cc(Nc2ncnc(-c3cccnc3Nc3cccc(C(N)=O)c3)n2)cc(OC)c1OC [Compound 1090] | > 6.07 | < 5.02 | < 5.02 | < 5.02 | < 5.02 | > 6.07 | 5.02 to 5.13 | < 5.02 | 5.02 to 5.13 | > 6.07 |
| CCOC(=O)CNc1ncnc(N2CCCc3cc(C)ccc32)n1 [Compound 761] | < 4.86 | < 4.86 | < 4.86 | < 4.86 | < 4.86 | < 4.86 | < 4.86 | < 4.86 | < 4.86 | < 4.86 |
| Cc1cccc(Nc2ncnc(N(C)c3cccc(Cl)c3)n2)c1 [Compound 709] | 4.97 to 5.13 | < 4.86 | < 4.86 | > 5.91 | 5.13 to 5.91 | < 4.86 | 5.13 to 5.91 | < 4.86 | < 4.86 | 4.97 to 5.13 |
| Fc1ccc(Nc2ncnc(Nc3ccc4cn[nH]c4c3)n2)cc1Cl [Compound 719] | < 4.90 | < 4.90 | < 4.90 | > 5.95 | 5.01 to 5.17 | 5.17 to 5.95 | < 4.90 | < 4.90 | < 4.90 | < 4.90 |
| COc1cc(Nc2ncnc(-c3cccnc3NCc3ccc(F)cc3)n2)cc(OC)c1OCCN1CCOCC1 [Compound 564] | > 6.15 | < 5.10 | < 5.10 | 5.21 to 5.37 | < 5.10 | > 6.15 | < 5.10 | < 5.10 | < 5.10 | > 6.15 |
| COc1cc(Nc2ncnc(N(C)c3cccc(Cl)c3)n2)cc(OC)c1 [Compound 712] | 5.19 to 5.97 | < 4.92 | < 4.92 | > 5.97 | > 5.97 | 5.19 to 5.97 | 5.19 to 5.97 | < 4.92 | < 4.92 | 5.19 to 5.97 |
